# Read-outs that look alike come from different tables or passages of the source.
# Columns and labels:
# human (hACC2) = human (hACC2) (Homo sapiens, UniProt O00763); assay: In vitro ACC inhibition assay (ADP-Glo), hACC2; type: biochemical; conditions: 5 nM ACC2, 20 μM ATP, 20 μM acetyl-CoA
# Procedure: The detailed procedure is as follows. […] 10 μL ADP glo reagent was added. […] 20 μL kinase detection reagent was added.
# C. albicans = assay: Antifungal Activity Assay (broth microtiter MIC), C. albicans; type: cell-based, Candida albicans; conditions: Candida albicans, ATCC90028, 48 h
# How it was run: (§1)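 CLSI M27-A3 microdilution; RPMI 1640+MOPS; 2.5×10^3 CFU/mL final inoculum; cultures from Sabouraud dextrose agar, 35° C overnight; compound working solution 128 μg/mL from 1 mg/mL DMSO stock; visual MIC at 48 h vs growth control.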
# C. krusei = assay: Antifungal Activity Assay (broth microtiter MIC), C. krusei; type: cell-based, Candida krusei; conditions: Pichia kudriavzevii, ATCC6258, 48 h
# How it was run: as §1
# C. parapsilosis = assay: Antifungal Activity Assay (broth microtiter MIC), C. parapsilosis; type: cell-based, Candida parapsilosis; conditions: Lodderomyces parapsilosis, ATCC22019, 48 h
# How it was run: as §1
# [1] = tested on: Collectotrichum graminicola (Cg); assay: Growth inhibition assay of fungal pathogens, Cg; type: cell-based; conditions: 48 h
# How it was run: (§2)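 Read-out: OD600 plus visual rating at 24 and 48 h, blank (media + 2% DMSO) subtracted. Percent inhibition was derived at 48 h versus the 2% DMSO control. Spores were grown in 17% V8 broth with compound at 50/10/2 or 2/0.4/0.08 ppm final.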
# Diplodia maydis (Dm) = assay: Growth inhibition assay of fungal pathogens, Dm; type: cell-based; conditions: Stenocarpella maydis, 48 h
# How it was run: as §2
# [2] = tested on: Fusarium moniliforme (Fm); assay: Growth inhibition assay of fungal pathogens, Fm; type: cell-based; conditions: for IC90: Fusarium verticillioides, 48 h, read-out: Concentration at 90% Inhibition Fm
# How it was run: as §2
# [3] = tested on: Fusarium virguliforme (Fv); assay: Growth inhibition assay of fungal pathogens, Fv; type: cell-based; conditions: 48 h
# How it was run: as §2
# [4] = tested on: Phytophthora capsici (Pc); assay: Growth inhibition assay of fungal pathogens, Pc; type: cell-based; conditions: 48 h
# How it was run: as §2
# Rhizoctonia solani (Rs) = assay: Growth inhibition assay of fungal pathogens, Rs; type: cell-based; conditions: 48 h
# Septoria tritici (St) = assay: Growth inhibition assay of fungal pathogens, St; type: cell-based; conditions: Zymoseptoria tritici, 48 h
# How it was run: as §2
# [5] = Fusarium moniliforme, growth inhibition at 48 hours vs 2% DMSO control
# Chain of human (hACC2) (O00763 whole entry): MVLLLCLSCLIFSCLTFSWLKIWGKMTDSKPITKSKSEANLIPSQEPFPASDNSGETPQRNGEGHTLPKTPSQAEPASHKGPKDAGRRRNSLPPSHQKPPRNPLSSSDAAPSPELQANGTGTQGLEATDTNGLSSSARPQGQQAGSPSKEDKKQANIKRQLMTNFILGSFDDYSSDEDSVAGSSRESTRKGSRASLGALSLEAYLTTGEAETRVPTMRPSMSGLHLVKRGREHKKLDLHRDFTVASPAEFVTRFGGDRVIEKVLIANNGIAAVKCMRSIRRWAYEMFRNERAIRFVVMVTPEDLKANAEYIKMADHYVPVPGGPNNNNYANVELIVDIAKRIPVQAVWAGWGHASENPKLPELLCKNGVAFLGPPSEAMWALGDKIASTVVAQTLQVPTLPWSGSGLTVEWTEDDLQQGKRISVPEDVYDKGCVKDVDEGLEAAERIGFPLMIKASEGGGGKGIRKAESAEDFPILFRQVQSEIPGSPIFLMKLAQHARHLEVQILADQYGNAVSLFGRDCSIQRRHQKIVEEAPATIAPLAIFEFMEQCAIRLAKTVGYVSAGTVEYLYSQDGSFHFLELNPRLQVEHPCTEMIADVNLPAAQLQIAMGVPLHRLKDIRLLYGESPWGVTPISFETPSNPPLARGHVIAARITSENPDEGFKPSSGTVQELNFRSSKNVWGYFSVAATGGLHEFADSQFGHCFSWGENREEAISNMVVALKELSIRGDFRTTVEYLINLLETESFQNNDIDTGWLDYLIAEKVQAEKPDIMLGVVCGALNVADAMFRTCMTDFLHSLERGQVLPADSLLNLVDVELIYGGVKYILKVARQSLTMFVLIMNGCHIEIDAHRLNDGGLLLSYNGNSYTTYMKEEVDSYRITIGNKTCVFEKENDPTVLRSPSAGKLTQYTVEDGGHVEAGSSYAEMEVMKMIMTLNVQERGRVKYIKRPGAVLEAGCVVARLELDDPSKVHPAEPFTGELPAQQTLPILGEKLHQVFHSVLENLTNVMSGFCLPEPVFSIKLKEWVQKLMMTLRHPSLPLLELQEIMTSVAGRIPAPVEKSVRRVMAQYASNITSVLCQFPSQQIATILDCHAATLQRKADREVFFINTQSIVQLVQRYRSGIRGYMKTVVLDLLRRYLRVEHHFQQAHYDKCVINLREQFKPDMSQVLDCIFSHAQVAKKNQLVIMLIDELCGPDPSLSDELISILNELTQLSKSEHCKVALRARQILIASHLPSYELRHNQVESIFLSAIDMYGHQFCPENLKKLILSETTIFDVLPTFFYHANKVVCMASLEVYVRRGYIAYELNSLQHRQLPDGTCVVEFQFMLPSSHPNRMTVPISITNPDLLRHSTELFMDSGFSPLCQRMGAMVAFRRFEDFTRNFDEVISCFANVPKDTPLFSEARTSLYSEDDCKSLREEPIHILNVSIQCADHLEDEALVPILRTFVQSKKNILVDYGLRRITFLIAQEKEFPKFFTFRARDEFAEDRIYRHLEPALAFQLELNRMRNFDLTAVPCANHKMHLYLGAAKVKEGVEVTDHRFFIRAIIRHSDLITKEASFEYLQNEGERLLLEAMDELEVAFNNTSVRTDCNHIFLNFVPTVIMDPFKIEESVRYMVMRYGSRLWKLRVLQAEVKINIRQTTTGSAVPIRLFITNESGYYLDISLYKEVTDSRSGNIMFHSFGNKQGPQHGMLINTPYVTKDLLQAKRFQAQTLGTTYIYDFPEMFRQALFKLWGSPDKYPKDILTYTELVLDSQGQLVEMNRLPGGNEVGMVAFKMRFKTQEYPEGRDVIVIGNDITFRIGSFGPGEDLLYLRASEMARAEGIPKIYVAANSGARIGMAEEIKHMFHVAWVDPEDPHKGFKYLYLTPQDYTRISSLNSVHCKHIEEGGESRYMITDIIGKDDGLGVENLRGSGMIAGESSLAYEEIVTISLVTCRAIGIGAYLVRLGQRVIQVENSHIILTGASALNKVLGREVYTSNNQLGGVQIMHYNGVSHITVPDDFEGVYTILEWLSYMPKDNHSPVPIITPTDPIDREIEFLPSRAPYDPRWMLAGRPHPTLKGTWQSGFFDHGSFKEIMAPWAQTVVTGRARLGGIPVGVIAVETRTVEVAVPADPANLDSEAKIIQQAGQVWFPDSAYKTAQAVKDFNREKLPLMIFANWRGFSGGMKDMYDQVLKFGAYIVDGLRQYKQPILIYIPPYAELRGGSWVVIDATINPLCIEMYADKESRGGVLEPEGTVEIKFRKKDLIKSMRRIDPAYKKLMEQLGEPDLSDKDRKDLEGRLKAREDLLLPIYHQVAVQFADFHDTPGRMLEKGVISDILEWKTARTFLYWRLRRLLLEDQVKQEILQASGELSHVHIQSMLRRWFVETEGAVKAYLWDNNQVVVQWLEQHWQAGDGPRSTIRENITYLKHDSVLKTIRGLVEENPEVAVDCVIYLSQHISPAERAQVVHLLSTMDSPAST
compound,measurement,setting,value
"C=CCO[C@@H](Cn1c(=O)n(C(C)(C)C(=O)NC(C)C)c(=O)c2c(C)c(-n3nccn3)sc21)c1cc(F)ccc1OC [Compound I-72, (R)-2-(1-(2-(allyloxy)-2-(5-fluoro-2-methoxyphenyl)ethyl)-5-methyl-2,4-dioxo-6-(2H-1,2,3-triazol-2-yl)-1,4-dihydrothieno[2,3-d]pyrimidin-3(2H)-yl)-N-isopropyl-2-methylpropanamide]",IC50,human (hACC2); Table 2a,1 to 5 nM
same,IC50,"human (hACC2); Table 2b, additional results",1 to 5 nM
same,MIC,"C. albicans; read-out: MIC, C. albicans ATCC 90028, Table 3a, 3 replicates, MIC recorded at 48 h",2.1 to 4 µg/mL
same,MIC,"C. albicans; read-out: MIC, C. albicans ATCC 90028, Table 3b (additional results), 3 replicates, MIC recorded at 48 h",1.01 to 2 µg/mL
same,MIC,"C. krusei; read-out: MIC, C. krusei ATCC 6258, Table 3a, 3 replicates, MIC recorded at 48 h",0.25 to 1 µg/mL
same,MIC,"C. krusei; read-out: MIC, C. krusei ATCC 6258, Table 3b (additional results), 3 replicates, MIC recorded at 48 h",0.25 to 1 µg/mL
same,MIC,"C. parapsilosis; read-out: MIC, C. parapsilosis ATCC 22019, Table 3a, 3 replicates, MIC recorded at 48 h",1.1 to 2 µg/mL
same,MIC,"C. parapsilosis; read-out: MIC, C. parapsilosis ATCC 22019, Table 3b (additional results), 3 replicates, MIC recorded at 48 h",1.01 to 2 µg/mL
same,IC90,"[1]; read-out: Concentration at 90% Inhibition Cg, Collectotrichum graminicola, growth inhibition at 48 hours vs 2% DMSO control",2 µg/mL
same,IC90,"[1]; read-out: Concentration at 90% Inhibition Cg, Collectotrichum graminicola, growth inhibition vs 2% DMSO control at 48 hours",2 µg/mL
same,IC90,"Diplodia maydis (Dm); read-out: Concentration at 90% Inhibition Dm, Diplodia maydis, growth inhibition at 48 hours vs 2% DMSO control",2 µg/mL
same,IC90,"Diplodia maydis (Dm); read-out: Concentration at 90% Inhibition Dm, Diplodia maydis, growth inhibition vs 2% DMSO control at 48 hours",2 µg/mL
same,Concentration at 90% Inhibition Fm,[2]; [5],AA (compound concentration of 0.08 ppm at 90% inhibition of fungal pathogens)
same,IC90,[2],0.08 µg/mL
same,IC90,"[3]; read-out: Concentration at 90% Inhibition Fv, Fusarium virguliforme, growth inhibition at 48 hours vs 2% DMSO control",0.4 µg/mL
same,IC90,"[3]; read-out: Concentration at 90% Inhibition Fv, Fusarium virguliforme, growth inhibition vs 2% DMSO control at 48 hours",0.4 µg/mL
same,IC90,"[4]; read-out: Concentration at 90% Inhibition Pc, Phytophthora capsici, growth inhibition at 48 hours vs 2% DMSO control",> 50 µg/mL
same,IC90,"[4]; read-out: Concentration at 90% Inhibition Pc, Phytophthora capsici, growth inhibition vs 2% DMSO control at 48 hours",> 50 µg/mL
same,IC90,"Rhizoctonia solani (Rs); read-out: Concentration at 90% Inhibition Rs, Rhizoctonia solani, mycelial plugs, growth inhibition at 48 hours vs 2% DMSO control",0.4 µg/mL
same,IC90,"Rhizoctonia solani (Rs); read-out: Concentration at 90% Inhibition Rs, Rhizoctonia solani, mycelial plugs, growth inhibition vs 2% DMSO control at 48 hours",0.4 µg/mL
same,IC90,"Septoria tritici (St); read-out: Concentration at 90% Inhibition St, Septoria tritici, growth inhibition at 48 hours vs 2% DMSO control",> 50 µg/mL
same,IC90,"Septoria tritici (St); read-out: Concentration at 90% Inhibition St, Septoria tritici, growth inhibition vs 2% DMSO control at 48 hours",> 50 µg/mL
"COc1ccc(F)cc1[C@H](Cn1c(=O)n(C(C)(C)C(=O)NC2CC2)c(=O)c2c(C)c(-n3nccn3)sc21)OC(C)C [Compound I-73, (R)—N-cyclopropyl-2-(1-(2-(5-fluoro-2-methoxyphenyl)-2-isopropoxyethyl)-5-methyl-2,4-dioxo-6-(2H-1,2,3-triazol-2-yl)-1,4-dihydrothieno[2,3-d]pyrimidin-3(2H)-yl)-2-methylpropanamide]",IC50,human (hACC2); Table 2a,5 to 10 nM
same,IC50,"human (hACC2); Table 2b, additional results",5 to 10 nM
same,MIC,"C. albicans; Table 3a, ATCC 90028, 3 replicates, MIC recorded at 48 h, read-out: MIC, C. albicans ATCC 90028",0.25 to 1 µg/mL
same,MIC,"C. albicans; Table 3b (additional results), ATCC 90028, 3 replicates, MIC recorded at 48 h, read-out: MIC, C. albicans ATCC 90028",0.25 to 1 µg/mL
same,MIC,"C. krusei; Table 3a, ATCC 6258, 3 replicates, MIC recorded at 48 h, read-out: MIC, C. krusei ATCC 6258",0.25 to 1 µg/mL
same,MIC,"C. krusei; Table 3b (additional results), ATCC 6258, 3 replicates, MIC recorded at 48 h, read-out: MIC, C. krusei ATCC 6258",0.06 to 0.249 µg/mL
same,MIC,"C. parapsilosis; Table 3a, ATCC 22019, 3 replicates, MIC recorded at 48 h, read-out: MIC, C. parapsilosis ATCC 22019",0.25 to 1 µg/mL
same,MIC,"C. parapsilosis; Table 3b (additional results), ATCC 22019, 3 replicates, MIC recorded at 48 h, read-out: MIC, C. parapsilosis ATCC 22019",1.01 to 2 µg/mL
same,IC90,"[1]; Collectotrichum graminicola, growth inhibition at 48 hours vs 2% DMSO control, read-out: Concentration at 90% Inhibition Cg",2 µg/mL
same,IC90,"[1]; Collectotrichum graminicola, growth inhibition vs 2% DMSO control at 48 hours, read-out: Concentration at 90% Inhibition Cg",2 µg/mL
same,IC90,"Diplodia maydis (Dm); Diplodia maydis, growth inhibition at 48 hours vs 2% DMSO control, read-out: Concentration at 90% Inhibition Dm",2 µg/mL
same,IC90,"Diplodia maydis (Dm); Diplodia maydis, growth inhibition vs 2% DMSO control at 48 hours, read-out: Concentration at 90% Inhibition Dm",2 µg/mL
same,IC90,[2]; [5],0.08 µg/mL
same,IC90,"[2]; Fusarium moniliforme, growth inhibition vs 2% DMSO control at 48 hours",0.08 µg/mL
same,IC90,"[3]; growth inhibition at 48 hours vs 2% DMSO control, read-out: Concentration at 90% Inhibition Fv",0.4 µg/mL
same,IC90,"[3]; growth inhibition vs 2% DMSO control at 48 hours, read-out: Concentration at 90% Inhibition Fv",0.4 µg/mL
same,IC90,"[4]; growth inhibition at 48 hours vs 2% DMSO control, read-out: Concentration at 90% Inhibition Pc",> 50 µg/mL
same,IC90,"[4]; growth inhibition vs 2% DMSO control at 48 hours, read-out: Concentration at 90% Inhibition Pc",> 50 µg/mL
same,IC90,"Rhizoctonia solani (Rs); mycelial plugs, growth inhibition at 48 hours vs 2% DMSO control, read-out: Concentration at 90% Inhibition Rs",0.4 µg/mL
same,IC90,"Rhizoctonia solani (Rs); mycelial plugs, growth inhibition vs 2% DMSO control at 48 hours, read-out: Concentration at 90% Inhibition Rs",0.4 µg/mL
same,IC90,"Septoria tritici (St); Septoria tritici, growth inhibition at 48 hours vs 2% DMSO control, read-out: Concentration at 90% Inhibition St",> 50 µg/mL
same,IC90,"Septoria tritici (St); Septoria tritici, growth inhibition vs 2% DMSO control at 48 hours, read-out: Concentration at 90% Inhibition St",> 50 µg/mL
